Structures can show the parent of a compound that is named as a salt.
Legend:
Assay type in all cases: cell-based
[1] = system: C. albicans; experiment: Fungicidal effect of lactate compared with HCl at identical pH (FIG. 1); settings: 5% solution at pH 3.8; incubation at 37 C for two hours; control 1,000,000CFU
[2] = system: C.albicans ATCC 64549; experiment: Minimum microbicidal concentration of lactate (microbicidal assay); settings: for killed: after 2.5 h of incubation; for Remaining viability: 2.5 h at 37° C.
Description: (§1) E.coli O6K5 (a urinary tract infection pathogen), a group B Streptococcus strain (GBS) CCUG 49086, and C.albicans ATCC 64549, The microorganisms were incubated over night in BHI medium. Thereafter the suspensions were transferred to new tubes and incubated for 2.5 h at 37° C. The cells were washed and suspended in diluted BHI ( 1/100, BHIdll). The suspensions were measured spectrophotometrically at 590 nm and the concentrations of the microrganisms adjusted according to standard curves. The bacterial suspensions were adjusted to 2×10^8CFU per ml and C.albicans
(§2) One lactate suppository was dissolved in 0.5 ml of distilled water. A lactate solution of 11.5% was obtained. This solution was used in the microbicidal assay.
(§3) The lactate solution was serially diluted in BHIdll by twofold steps in tubes (100 μl piper tube). The bacterial and yeast cell solutions were added in 10 μl volumes to give a final concentration of approximately 2×10^7 and 1×10^5 cells per ml respectively. The tubes were incubated at 37° C. on a shaker for 2.5 h. Five ul were taken from each tube and added as a drop (in triplicate) onto a blood agar plate and incubated over night at 37° C. The killing was expressed as remaining colony forming units (CFU) in relation to the inoculum. The lower limit for detection of microorganisms was 200 CFU/ml. The viability of any remaining microorganism in the tubes was checked by diluting the remaining solutions to 1/5 with growth medium, resulting in a 2.3% lactate solution or less, and incubation of the tubes over night at 37 C. The next day, once again 5 μl of the solutions were applied as drops onto blood agar plates and incubated at 37° C. over night.

[3] = system: group B Streptococcus strain (GBS) CCUG 49086; experiment: as above; settings: for Remaining viability: 2.5 h at 37° C.; for killed: after 2.5 h of incubation
Description: as §1, §2, §3

[4] = system: E.coli O6K5; experiment: as above; settings: for Remaining viability: 2.5 h at 37° C.
Description: as §1, §2, §3

Cl [HCl, reference compound]
viable colony forming units of C. albicans [1]: 100,000 CFU

CC(O)C(=O)O (stereo not shown) [lactate]
killed ([2]; 5.8% of lactate): 99.4% | killed ([2]; 11.5% of lactate): 100% | lactate concentration that effectively killed the pathogen ([2]; 2.5 h incubation): ≥ 5.8% | Remaining viability ([2]; lactate concentration 0.35%): + (no distinguishable colonies (>50 CFU per area = >10^4 CFU per ml)) | Remaining viability ([2]; lactate concentration 0.7%): + (no distinguishable colonies (>50 CFU per area = >10^4 CFU per ml)) | Remaining viability ([2]; lactate concentration 1.4%): + (no distinguishable colonies (>50 CFU per area = >10^4 CFU per ml)) | Remaining viability ([2]; lactate concentration 2.9%): + (no distinguishable colonies (>50 CFU per area = >10^4 CFU per ml)) | Remaining viability ([2]; lactate concentration 5.8%): 0.6 ± 0.4^¤ percentage of the inoculum | Remaining viability ([2]; lactate concentration 11.5%): 0 | lactate concentration that effectively killed the pathogen ([3]; 2.5 h incubation): ≥ 5.8% | Remaining viability ([3]; lactate concentration 0.35%): + (no distinguishable colonies (>50 CFU per area = >10^4 CFU per ml)) | Remaining viability ([3]; lactate concentration 0.7%): + (no distinguishable colonies (>50 CFU per area = >10^4 CFU per ml)) | Remaining viability ([3]; lactate concentration 1.4%): + (no distinguishable colonies (>50 CFU per area = >10^4 CFU per ml)) | Remaining viability ([3]; lactate concentration 2.9%): + (no distinguishable colonies (>50 CFU per area = >10^4 CFU per ml)) | Remaining viability ([3]; lactate concentration 5.8%): 0 | killed ([3]; lactate concentration 5.8%): 100% | Remaining viability ([3]; lactate concentration 11.5%): 0 | killed ([3]; lactate concentration 11.5%): 100% | lactate concentration that effectively killed the pathogen ([4]; 2.5 h incubation): ≥ 5.8% | Remaining viability ([4]; lactate concentration 0.35%): 0 | Remaining viability ([4]; lactate concentration 0.7%): 0 | Remaining viability ([4]; lactate concentration 1.4%): 0 | Remaining viability ([4]; lactate concentration 2.9%): 0 | Remaining viability ([4]; lactate concentration 5.8%): 0 | Remaining viability ([4]; lactate concentration 11.5%): 0 | killed ([4]; lowest concentration of lactate tested (0.35%), after 2.5 h of incubation): 100% | viable colony forming units of C. albicans [1]: < 100 CFU
